In patent publication US8173840B2, “Compounds with high therapeutic index” (Signature R&D Holdings, LLC, priority 2003, dated 2012):

Columns and labels:
[1] = system: fasted male albino rats (Wistar strain); experiment: Gastric mucosa irritation of acetylsalicylic acid esters; type: in vivo, rat; conditions: single dose by gavage, 3 hours, 5 animals
Method: Aspirin served as a reference control. […] All the doses were expressed as aspirin molar equivalents. The doses used as well as the molar equivalents are presented below. The rats were fasted for a period of 18 to 22 hours before dosing. The test item was administered as a single dose by gavage. Three hours after drug administration, the animals were killed humanely by CO2 gas inhalation. The stomach was dissected out and observed for • the quantity of mucous exudate, • degree of hyperemia and thickening of stomach wall, • hemorrhagic spots (focal or diffuse), nature of hemorrhages (petechial or ecchymotic) along with the size and • perforations

albino rats = experiment: Blood clotting time in albino rats, one hour after dosing; type: in vivo, rat; conditions: one hour after dosing
Method: The data on the mean clotting time (MCT) of the animals of low, intermediate and high dose groups of different formulations, vehicle control and positive control groups estimated one hour after dosing were presented below (Table 19):
Aspirin served as positive control. The study was conducted at three dose levels with the new formulations and positive control along with a vehicle control group.
The doses for the main study were selected based on the dose range finding experiments with acetylsalicylic acid. All the doses were expressed as aspirin molar equivalents. The doses used are presented below.

Male albino rats = experiment: Blood clotting time in albino rats, 2 hours after dosing; type: in vivo, rat; conditions: 20 mg/kg as aspirin, 2 hours (±10 minutes) after dosing
Method: Aspirin served as positive control. Male albino rats were exposed to aspirin and to 3 new formulations of amino acid derivatives of aspirin derivatives at one dose level of 20 mg/kg body weight. […]. The doses were expressed as aspirin molar equivalents.
The efficacy in terms of time required for the blood clotting time at the dose level of 20 mg/kg body weight for different formulations of amino acid derivatives of aspirin and aspirin (positive control) are presented below:
The data on the mean clotting time (MCT) of the animals, estimated 2 hours (±10 minutes) after dosing, at the dose level of 20 mg/kg body weight for the formulations of aspirin derivatives, vehicle control and positive control are presented below

rats = experiment: Clotting time in rats, different date, time intervals and doses (Table 24); type: in vivo, rat
Source text: The following additional data were obtained, when the same drugs were compared in rats on a different date with different time intervals and doses: […]

human volunteers = experiment: Blood clotting time studies in human volunteers; type: in vivo; conditions: human volunteers
Method: Several blood clotting time studies were performed on a limited number of human volunteers with Acetylsalicylic Acid-L-Threonine Ester. […] This plot was derived from the data in Table 29. The two Acetylsalicylic Acid-L-Threonine Ester blocks shown above correspond to two separate volunteers who took the test drug over a period of 5 days. The third volunteer took Bayer Aspirin for 5 days. As per FIG. 2, increase in clotting time occurred on the very first day of drug intake, and remained higher than Bayer ASA during the subsequent administrations.

[2] = Plasma aspirin and salicylic acid in human volunteers; type: in vivo
Source text: This is shown in FIG. 12 which depicts the concentration of salicyclic Acid in human plasma with respect to four volunteers who took Acetylsalicyclic Acid-L-Threonine Ester and two volunteers who took Aspirin.

[3] = system: albino rats (Wistar strain); conditions: rat, in vivo
Method: (§1) The study was conducted at one dose level only along with a vehicle control group as per the recommendation of the Sponsor. The test doses are expressed as Aspirin molar equivalents.

women = conditions: daily dose of 60 mg, more than 9000 women; cited from earlier work
[4] = system: albino rats (Wistar strain); experiment: 28-day repeated dose oral toxicity test of Acetylsalicylic Acid-L-Threonine Ester; conditions: 100 mg/kg as aspirin, oral gavage daily 28 days;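 note: one dose level only, compared with a vehicle control group, with doses stated as Aspirin molar equivalents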
Method: as §1

CC(=O)Oc1ccccc1C(=O)O [acetylsalicylic acid, reference compound]
Observation, gastric mucosal irritation ([1]; 100.0 mg/kg as acetylsalicylic acid, listed as aspirin): failed to cause any evidence of gastric mucosal irritation
Observation, gastric mucosal irritation ([1]; 200.0 mg/kg as acetylsalicylic acid, listed as aspirin (acetylsalicylic acid)): caused irritation of the gastric mucosal in all the fasted male albino rats
Mean Clotting Time (±S.D.), Low Dose (albino rats; 1.0 mg/kg as aspirin): 6.2 ± 1.40 min
Mean Clotting Time (±S.D.), Intermediate Dose (albino rats; 4.0 mg/kg as aspirin): 8.1 ± 1.97 min
Mean Clotting Time (±S.D.), High Dose (albino rats; 10.0 mg/kg as aspirin): 9.8 ± 1.32 min
statistical analysis of mean clotting time vs vehicle control (albino rats): significant improvement at 5% significance level in the efficacy for the intermediate and high dose
Mean Clotting Time (± S.D.) (Male albino rats): 5.4 ± 1.17 min
Clotting Time (rats; 10 mg/kg 1 hr): 9.8 min
Clotting Time (rats; 10 mg/kg 24 hr): 4.4 min
Clotting Time (rats; 20 mg/kg 2 hr): 5.4 min
AVERAGE CLOTTING TIME (human volunteers; 81 mg): 4.5 min
AVERAGE CLOTTING TIME (human volunteers; 325 mg): 5.7 min
Salicylic Acid in human plasma (profile, words) [2]: Rapid influx and efflux of Salicylic Acid
Aspirin in blood / plasma ([2]; 325 mg dose, oral): showed Plasma levels of Aspirin
Alkaline Phosphatase, Significance [P < 0.05] [3]: Increase (Female)
All Blood Parameters, Significance [P < 0.05] [3]: None
Blood Urea, Significance [P < 0.05] [3]: Decrease (Female)
Food intake [3]: normal and comparable to the animals of vehicle control group
Kidney (Abs) organ weight, Significance[P < 0.05] [3]: Decrease (Male)
Kidney (Rel) organ weight, Significance[P < 0.05] [3]: Increase (Male)
SGPT and Cholesterol, Significance [P < 0.05] [3]: Increase (Male)
Sodium, Significance [P < 0.05] [3]: Increase (Female)
Spleen (Abs) organ weight, Significance[P < 0.05] [3]: Decrease (Female)
Spleen (Rel) organ weight, Significance[P < 0.05] [3]: Increase (Female)
histological sections of organs [3]: mild fatty changes in the cardiac muscle fibers of heart and mild catarrhal changes of gastric mucosa
reduced the risk of pre-eclampsia by (women): 13%
survival [4]: survived through the dosing period of 28 days
